Reference: patent US7785567B2, “Growth hormone-releasing peptides in the treatment or prevention of atherosclerosis and hypercholesterolemia” (Valorisation-Recherche, Société en Commandite, priority 2002, dated 2010)
Where a SMILES comes first, the peptide text is derived from it. Primed or numbered codes have the meaning given here. Where no end group is shown, it is not given here. [ ]: non-standard residue; d: D form. dTrp(2-Me) = Cc1[nH]c2ccccc2c1C[C@@H](N)C(=O)O; Haic′ = not defined here

Tests used:
[1] = test system: human monocytic THP-1 cells; experiment: Lipid accumulation in PMA-differentiated THP-1 macrophages (Oil Red O extraction, 510 nm); type: cell-based; conditions: 10 μM for 24 hrs
Protocol: A: GHRPs reduce lipid accumulation in differentiated human macrophages. To induce lipid accumulation, human monocytic THP-1 cells were differentiated to macrophages with 5 ng/mL PMA for 48 hrs and then treated as indicated for 24 hrs with 10 μM HEX or EP80317 in the presence of phorbol myristate acetate (PMA). Non-differentiated cells (no PMA) were also analysed. Lipid accumulation was quantified by photometry at 510 nm following extraction of Oil Red O from stained cells. Lipid staining was reduced by 35% and 28% in macrophages treated with HEX and EP80317, respectively, compared to untreated cells.

ApoE-null mice [2] = experiment: Fatty streak lesion area in aortas, en face oil red-O staining, 12 weeks treatment (Example 1); type: in vivo, mouse; conditions: HFHC diet, HEX 100 μg/kg per day or EP80317 300 μg/kg per day s.c. for 12 weeks from 6 weeks old, vs 0.9% NaCl
Protocol: GHRPs prevent fatty streak formation in ApoE deficient mice fed a HFHC diet for 12 weeks (from 6 weeks old). Effects of HEX (100 μg/kg per day) and of EP80317 (300 μg/kg per day), administered subcutaneously for 12 weeks (from 6 weeks old).
To determine whether GHRPs reduce atherosclerosis development, we have used the ApoE deficient mice strain and their C57BL/6 control littermates to assess the effects of prolonged (12 weeks) GHRPs treatment on fatty streak formation in mice fed a an enriched lipid diet. The surface area of oil red-O staining aortas of mice has been used as an index of plaque development and changes in the plasma levels of lipids as an index of hypolipemic effect. […]
(§1) The animals were housed in cages (less than 5 per cage) and fed a normal chow diet and water ad libitum. […] Four days before sacrifice, 6 mice from Groups 1 to 3 were injected i.p. with oxLDL (minimally oxidized, 3-6 mmol/mg protein, as determined by Thiobarbituric Acid Reactive Substances (TBARS) assay). […] The entire aorta from the heart, extending 5-10 mm after bifurcation of the iliac arteries and including the subclavian right and left common carotid arteries, was removed, dissected, and evaluated for lesion development by en face oil red-O staining and morphometry of scanned images using the software Scion Image (Scion Corp., Fredrick, Md.). […]

CD36-null mice = experiment: oxLDL-induced accumulation of macrophages in the peritoneal cavity; type: in vivo, mouse; conditions: HFHC diet, EP80317 300 μg/kg per day, 12 weeks
Protocol: (§2) A: Effects of 12 weeks treatment (from 6 weeks old) with 0.9% NaCl (open bar), HEX, 100 μg/kg per day (solid bar) or EP80317, 300 μg/kg per day (cross-hatched bar) on oxLDL (250 μg i.p., <6 nmol MDA/mg lipoprotein)-induced accumulation of macrophages in the peritoneal cavity in wild type C57BL/6 mice and CD36-null mice fed a HFHC diet. Peritoneal macrophage accumulation in wild type mice tended to be reduced by 37%.
as §1, with “libitum. At 6 weeks of age, male C57BL/6, CD36 and ApoE-null mice were assigned to 1 of 3 groups (n=12 mice per group): Group 1 received daily injections of 0.9% NaCl (1 μL/g); Group 2, HEX (100 μg/kg, 1 μL/g), and Group 3, EP80317 (300 μg/kg, 1 μL/g).” for “libitum.”

wild type C57BL/6 mice = experiment: as above; type: in vivo, mouse; conditions: HFHC diet, EP80317 300 μg/kg per day, 12 weeks, oxLDL 250 μg i.p.
Protocol: as §2
as §1, with “libitum. At 6 weeks of age, male C57BL/6, CD36 and ApoE-null mice were assigned to 1 of 3 groups (n=12 mice per group): Group 1 received daily injections of 0.9% NaCl (1 μL/g); Group 2, HEX (100 μg/kg, 1 μL/g), and Group 3, EP80317 (300 μg/kg, 1 μL/g).” for “libitum.”

[3] = test system: peritoneal macrophages isolated from ApoE-null mice; experiment: Lipid accumulation in peritoneal macrophages isolated from treated ApoE-null mice (Oil Red O extraction); type: in vivo, mouse; conditions: HFHC diet from 13 to 18 weeks old, EP80317 300 μg/kg s.c. from 13 to 18 weeks old, vs not treated
Protocol: B: GHRPs reduced lipid accumulation in peritoneal macrophages isolated from ApoE-null mice fed a HFHC diet from 13 to 18 weeks old. EP80317 (300 μg/kg) s.c. has been administered from 13 to 18 weeks old. Lipid staining (assessed by Oil Red O extraction) was reduced by 57% (compared to peritoneal macrophages isolated from ApoE-null mice fed a HFHC diet from 13 weeks old, but not treated with EP80317).

[4] = cited from earlier work
ApoE-null mice [5] = experiment: Fatty streak lesion area in aortas, treatment begun after start of HFHC diet (Example 2); type: in vivo, mouse; conditions: HFHC diet from 6 weeks
Protocol: The effects of EP80317 (300 μg/kg per day) administered subcutaneously for 8 weeks (from 10 to 18 weeks of age), 6 weeks (from 12 to 18 weeks of age) and 4 weeks (from 14 to 18 weeks of age) were documented, as well as the effect of hexarelin (100 μg/kg per day) given for 4 weeks (from 14 to 18 weeks of age).
To determine whether GHRPs are able to delay the development or to modulate the regression of fatty streaks, we have used the ApoE-deficient mice to assess the effect of the duration of the treatment with GHRPs on the progression of fatty streaks after the initiation of atherosclerotic lesions induced by a HFHC diet starting at 6 weeks of age.
Male ApoE-null mice (n=35) were housed in cages (less than 5 per cage). After weaning until 4 weeks of age, the mice were fed a normal chow diet and water ad libitum. Starting at 6 weeks of age, the mice were fed a HFHC diet (purchased from Research Diet Inc. (D.12108)). The animals were segregated in 3 groups. • Group 1 (n=10) was subdivided into 2 subgroups, receiving, from 10 to 18 weeks of age (i.e. for 8 weeks), daily injections of EP80317 (300 μg/kg) (n=5) or 0.9% NaCl (n=5). • Group 2 (n=10) was subdivided into 2 subgroups receiving, from 12 to 18 weeks of age (i.e. for 6 weeks), daily injections of EP80317 (300 μg/kg/per day) (n=5) or 0.9% NaCl (n=5). • Group 3 (n=15) was subdivided into 3 subgroups, receiving, from 14 to 18 weeks of age (i.e. for 4 weeks), EP80317 (300 μg/kg/per day) (n=5), or hexarelin (100 μg/kg per day) (n=5) or 0.9% NaCl (n=5).
Mice were euthanised at 18 weeks of age. The entire aortas from the heart extending 5-10 mm after bifurcation of the iliac arteries and including the subclavian right and left common carotids were removed, dissected and evaluated for lesion development by en face oil red-O staining and morphometry of scanned images using the software Scion image (Scion Corp., Frederick, Md.).

CD36 = experiment: Western blot of oxLDL-elicited peritoneal macrophages from treated ApoE-null mice; type: in vivo, mouse; conditions: HFHC diet, HEX 100 μg/kg or EP80317 300 μg/kg per day, 12 weeks, normalised to β-actin, vehicle set at 100%
Text: GHRPs modulate CD36 and ABCA1 protein levels in peritoneal macrophages from ApoE-null mice fed a HFHC diet for 12 weeks. […] Relative protein levels for A, CD36 and B, ABCA1 are normalised to β-actin and expressed as % of change compared to vehicle (0.9% NaCl)-treated controls set at 100%. Data represent the mean of two independent experiments.

ApoE-null mice [6] = experiment: oxLDL-induced accumulation of macrophages in the peritoneal cavity; type: in vivo, mouse; conditions: normal chow diet, EP80317 300 μg/kg per day, 12 weeks
Protocol: B: Effects of 12 weeks treatment (from 6 weeks old) with 0.9% NaCl (open bar), HEX, 100 μg/kg per day (solid bar) or EP80317, 300 μg/kg per day (cross-hatched bar) on oxLDL-induced accumulation of macrophages in the peritoneal cavity in ApoE-null mice fed either a HFHC or a normal diet. Peritoneal macrophage accumulation was reduced by 39% in mice fed a normal diet.
as §1, with “libitum. At 6 weeks of age, male C57BL/6, CD36 and ApoE-null mice were assigned to 1 of 3 groups (n=12 mice per group): Group 1 received daily injections of 0.9% NaCl (1 μL/g); Group 2, HEX (100 μg/kg, 1 μL/g), and Group 3, EP80317 (300 μg/kg, 1 μL/g). All three groups of mice were fed a HFHC diet (purchased from Research Diet Inc. (D.12108)) from 6 weeks of age.” for “libitum.”

ApoE-null mice [7] = experiment: Plasma lipid analysis (enzymatic kits) after 12 weeks treatment; type: in vivo, mouse; conditions: HFHC diet; for Increase in HDL cholesterol compared to controls: HEX 100 μg/kg or EP80317 300 μg/kg per day for 12 weeks, tended to be increased
Protocol: A: Effects of 12 weeks treatment (from 6 weeks old) with 0.9% NaCl (open bar), HEX, 100 μg/kg per day (solid bar) or EP80317 300 μg/kg per day (cross-hatched bar) on total plasma cholesterol in mice fed a HFHC or a normal diet.
The animals were housed in cages (less than 5 per cage) and fed a normal chow diet and water ad libitum. At 6 weeks of age, male C57BL/6, CD36 and ApoE-null mice were assigned to 1 of 3 groups (n=12 mice per group): Group 1 received daily injections of 0.9% NaCl (1 μL/g); Group 2, HEX (100 μg/kg, 1 μL/g), and Group 3, EP80317 (300 μg/kg, 1 μL/g). All three groups of mice were fed a HFHC diet (purchased from Research Diet Inc. (D.12108)) from 6 weeks of age. Daily s.c. treatment with HEX, EP80317 or vehicle was begun at 6 weeks old and continued for 12 weeks. Four days before sacrifice, 6 mice from Groups 1 to 3 were injected i.p. with oxLDL (minimally oxidized, 3-6 mmol/mg protein, as determined by Thiobarbituric Acid Reactive Substances (TBARS) assay). At 18 weeks old, mice were fasted overnight, anaesthetised with ketamine-xylazine (90:10 mg/kg) two hours after the s.c. administration of the morning dose of the drug under study. Blood (1 mL) was taken from the heart and put into EDTA pre-coated microcontainers (BD, Franklin Lakes, N.J., USA). Mice were killed, the hearts were perfused with 20 mL 0.9% NaCl. The peritoneal cavity was washed with 3 mL of heparinised saline (10 units/mL) in mice injected i.p. with oxLDL. A hemacytometer and stained cytospin preparation (Diff Quick stain, Dade Diagnostics of P.R. Inc., Aguada, PR) were used to determine the total and differential leukocyte numbers, respectively, for the peritoneal cavity lavage fluid. The entire aorta from the heart, extending 5-10 mm after bifurcation of the iliac arteries and including the subclavian right and left common carotid arteries, was removed, dissected, and evaluated for lesion development by en face oil red-O staining and morphometry of scanned images using the software Scion Image (Scion Corp., Fredrick, Md.). The animal study protocol was reviewed and approved by the institutional Animal Ethics Committee of the Université de Montréal and conducted in accordance with the Canadian Council on Animal Care guidelines for use of experimental animals.
Total plasma cholesterol, triacylglycerol and HDL cholesterol were determined using enzymatic kits (Sigma Chemicals). Appropriate standards and controls were included in each assay.

[8] = treatment for 4 weeks (14 to 18 weeks of age), EP80317 300 μg/kg or hexarelin 100 μg/kg per day, not significant
[9] = EP80317 300 μg/kg daily for 12 weeks from 6 weeks old

Row | Compound | Reduction of lipid staining compared to untreated cells [1] [%] | Reduction of lesion area (% of total aorta area) compared to controls (ApoE-null mice [2]) [%] | oxLDL-induced peritoneal macrophage accumulation (CD36-null mice) | Reduction of oxLDL-induced peritoneal macrophage accumulation (wild type C57BL/6 mice) [%] | Reduction of lipid staining in peritoneal macrophages (Oil Red O extraction) [3] [%] | GH-secreting activity in vivo [4] | Reduction of lesion area (% total aorta area) compared to controls (ApoE-null mice [5]; [8]) [%] | Reduction of lesion area (% total aorta area) compared to controls (ApoE-null mice [5]; treatment for 6 weeks (12 to 18 weeks of age), EP80317 300 μg/kg per day s.c.) [%] | Reduction of lesion area (% total aorta area) compared to controls (ApoE-null mice [5]; treatment for 8 weeks (10 to 18 weeks of age), EP80317 300 μg/kg per day s.c.) [%] | CD36 protein expression in peritoneal macrophages, % of controls (CD36) | Reduction of oxLDL-induced peritoneal macrophage accumulation (ApoE-null mice [6]) [%] | Decrease in non-HDL plasma cholesterol compared to controls (ApoE-null mice [7]; [9]) [%] | Decrease in total plasma cholesterol compared to controls (ApoE-null mice [7]; [9]) [%] | Increase in HDL cholesterol compared to controls (ApoE-null mice [7]) [%]
1 | Haic-(D) -(Me)Trp-(D)-Lys-Trp-(D)-Phe-Lys-NH2 ([Haic′]W[dK]W[dF]K-NH2; not fully specified (residue 2)) [EP80317] | 28 | 51 | did not modulate macrophage accumulation | 37 | 57 | devoid of GH-secreting activity in vivo | 36 | 31.3 | 39.2 | 27 % of controls | 39 | 31 | 30 | 73
2 | Cc1[nH]c2ccccc2c1C[C@@H](NC(=O)[C@@H](N)Cc1cnc[nH]1)C(=O)N[C@@H](C)C(=O)N[C@@H](Cc1c[nH]c2ccccc12)C(=O)N[C@H](Cc1ccccc1)C(=O)N[C@@H](CCCCN)C(N)=O [HEX, His-(D) -(Me)Trp-Ala-Trp-(D)-Phe-Lys-NH2, reference compound] (H-H[dTrp(2-Me)]AW[dF]K-NH2) | 35 | 28 | – | – | – | – | 8 | – | – | 57 % of controls | – | – | – | 65
